Laboratory results published in ChEMBL document CHEMBL1201861, “Genomics of Drug Sensitity in Cancer screening data, Wellcome Trust Sanger Institute”.

Columns and labels:
[1] = test system: SNU-C1; test: cells; assay type: functional, cell-based; settings: Homo sapiens;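 also: growth inhibition of SNU-C1 human cells, read out by a cell viability assay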
Description: SANGER: Inhibition of human SNU-C1 cell growth in a cell viability assay.

[2] = test system: NCI-H64; test: cells; assay type: functional, cell-based; settings: Homo sapiens;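 also: growth inhibition of NCI-H64 cells, read out with a cell viability assay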
Description: SANGER: Inhibition of human NCI-H64 cell growth in a cell viability assay.

[3] = test system: LU-165; test: cells; assay type: functional, cell-based; settings: Homo sapiens
Description: SANGER: Inhibition of human LU-165 cell growth in a cell viability assay.

[4] = test system: SCLC-21H; test: cells; assay type: functional, cell-based; settings: Homo sapiens;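 also: growth inhibition of cultured human SCLC-21H cells, read out with a cell viability assay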
Description: SANGER: Inhibition of human SCLC-21H cell growth in a cell viability assay.

[5] = test system: NCI-H889; test: cells; assay type: functional, cell-based; settings: Homo sapiens;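 also: cell growth inhibition of the cell line, read out with a viability assay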
Description: SANGER: Inhibition of human NCI-H889 cell growth in a cell viability assay.

[6] = test system: BL-70; test: SANGER: Inhibition of human BL-70 cell growth in a cell viability assay.; assay type: functional, cell-based
[7] = test system: NCI-H1436; test: cells; assay type: functional, cell-based; settings: Homo sapiens;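 also: growth suppression of human NCI-H1436 cells, determined with a cell viability readout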
Description: SANGER: Inhibition of human NCI-H1436 cell growth in a cell viability assay.

[8] = test system: EVSA-T; test: cells; assay type: functional, cell-based, Homo sapiens; settings: Homo sapiens, EVSA-T;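 also: growth inhibition of EVSA-T cells, read out with a cell viability assay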
Description: SANGER: Inhibition of human EVSA-T cell growth in a cell viability assay.

[9] = test system: IST-SL2; test: cells; assay type: functional, cell-based; settings: Homo sapiens;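 also: growth inhibition of human IST-SL2 cells, read out by a cell viability assay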
Description: SANGER: Inhibition of human IST-SL2 cell growth in a cell viability assay.

[10] = test system: MDA-MB-134-VI; test: cells; assay type: functional, cell-based; settings: Homo sapiens
Description: SANGER: Inhibition of human MDA-MB-134-VI cell growth in a cell viability assay.

[11] = test system: NCI-H524; test: cells; assay type: functional, cell-based; settings: Homo sapiens;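 also: growth inhibition of human NCI-H524 cells, read out through a cell viability assay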
Description: SANGER: Inhibition of human NCI-H524 cell growth in a cell viability assay.

[12] = test system: TE-15; test: cells; assay type: functional, cell-based; settings: Homo sapiens;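 also: cell viability readout of growth inhibition in TE-15 cells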
Description: SANGER: Inhibition of human TE-15 cell growth in a cell viability assay.

[13] = test system: NCI-H2141; test: cells; assay type: functional, cell-based; settings: Homo sapiens;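 also: growth inhibition of human NCI-H2141 cells, read out with a cell viability assay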
Description: SANGER: Inhibition of human NCI-H2141 cell growth in a cell viability assay.

[14] = test system: COR-L279; test: SANGER: Inhibition of human COR-L279 cell growth in a cell viability assay.; assay type: functional, cell-based
[15] = test system: MC-CAR; test: cells; assay type: functional, cell-based; settings: Homo sapiens;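 also: growth inhibition of the human MC-CAR cell line, read out by a cell viability assay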
Description: SANGER: Inhibition of human MC-CAR cell growth in a cell viability assay.

[16] = test system: GDM-1; test: cells; assay type: functional, cell-based; settings: Homo sapiens;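 also: cell viability readout used to measure growth inhibition of human GDM-1 cells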
Description: SANGER: Inhibition of human GDM-1 cell growth in a cell viability assay.

[17] = test system: YT; test: cells; assay type: functional, cell-based; settings: Homo sapiens
Description: SANGER: Inhibition of human YT cell growth in a cell viability assay.

[18] = test system: IM-9; test: SANGER: Inhibition of human IM-9 cell growth in a cell viability assay.; assay type: functional, cell-based
[19] = test system: SU-DHL-1; test: SANGER: Inhibition of human SU-DHL-1 cell growth in a cell viability assay.; assay type: functional, cell-based
[20] = test system: NCI-H1882; test: cells; assay type: functional, cell-based; settings: Homo sapiens;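 also: growth inhibition of the cell line, determined with a viability assay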
Description: SANGER: Inhibition of human NCI-H1882 cell growth in a cell viability assay.

[21] = test system: KMS-12-PE; test: cells; assay type: functional, cell-based; settings: Homo sapiens;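 also: growth inhibition of human KMS-12-PE cells, measured with a cell viability assay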
Description: SANGER: Inhibition of human KMS-12-PE cell growth in a cell viability assay.

[22] = test system: NCI-H1694; test: cells; assay type: functional, cell-based; settings: Homo sapiens;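 also: cell viability assay measuring inhibition of growth in human NCI-H1694 cells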
Description: SANGER: Inhibition of human NCI-H1694 cell growth in a cell viability assay.

[23] = test system: Raji; test: cells; assay type: functional, cell-based; settings: Homo sapiens;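 also: cell viability assay measuring inhibition of Raji cell growth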
Description: SANGER: Inhibition of human Raji cell growth in a cell viability assay.

[24] = test system: BL-41; test: cells; assay type: functional, cell-based; settings: Homo sapiens;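 also: growth inhibition of human BL-41 cells, read out with a cell viability assay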
Description: SANGER: Inhibition of human BL-41 cell growth in a cell viability assay.

[25] = test system: CMK; test: cells; assay type: functional, cell-based; settings: Homo sapiens;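 also: growth inhibition of CMK cells, read out as cell viability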
Description: SANGER: Inhibition of human CMK cell growth in a cell viability assay.

[26] = test system: CAL-148; test: cells; assay type: functional, cell-based; settings: Homo sapiens
Description: SANGER: Inhibition of human CAL-148 cell growth in a cell viability assay.

[27] = test system: CESS; test: SANGER: Inhibition of human CESS cell growth in a cell viability assay.; assay type: functional, cell-based
[28] = test system: HCC1599; test: cells; assay type: functional, cell-based; settings: Homo sapiens;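 also: growth inhibition of HCC1599 cells, read out in a cell viability assay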
Description: SANGER: Inhibition of human HCC1599 cell growth in a cell viability assay.

[29] = test system: ST486; test: SANGER: Inhibition of human ST486 cell growth in a cell viability assay.; assay type: functional, cell-based
[30] = test system: JIYOYE; test: cells; assay type: functional, cell-based; settings: Homo sapiens
Description: SANGER: Inhibition of human JiyoyeP-2003 cell growth in a cell viability assay.

[31] = test system: L-540; test: cells; assay type: functional, cell-based; settings: Homo sapiens;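 also: growth inhibition of the human L-540 cell line, read out with a viability assay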
Description: SANGER: Inhibition of human L-540 cell growth in a cell viability assay.

[32] = test system: SNU-16; test: cells; assay type: functional, cell-based; settings: Homo sapiens;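 also: growth inhibition of human SNU-16 cells, determined with a cell viability readout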
Description: SANGER: Inhibition of human NCI-SNU-16 cell growth in a cell viability assay.

[33] = test system: CA46; test: cells; assay type: functional, cell-based; settings: Homo sapiens;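 also: growth inhibition of human CA46 cells, read out by a cell viability assay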
Description: SANGER: Inhibition of human CA46 cell growth in a cell viability assay.

[34] = test system: K052; test: cells; assay type: functional, cell-based; settings: Homo sapiens;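 also: Read-out from a cell viability assay, IC50 reflecting suppression of K052 cell growth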
Description: SANGER: Inhibition of human K052 cell growth in a cell viability assay.

[35] = test system: LOUCY; test: cells; assay type: functional, cell-based; settings: Homo sapiens;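 also: growth inhibition of human LOUCY cells, read out with a cell viability assay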
Description: SANGER: Inhibition of human LOUCY cell growth in a cell viability assay.

[36] = test system: BC-3; test: cells; assay type: functional, cell-based; settings: Homo sapiens;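 also: cell viability assay measuring growth inhibition of human BC-3 cells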
Description: SANGER: Inhibition of human BC-3 cell growth in a cell viability assay.

[37] = test system: KARPAS-422; test: cells; assay type: functional, cell-based; settings: Homo sapiens
Description: SANGER: Inhibition of human KARPAS-422 cell growth in a cell viability assay.

[38] = test system: NCI-H1522; test: cells; assay type: functional, cell-based; settings: Homo sapiens;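 also: growth inhibition of NCI-H1522 cells, read out with a cell viability assay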
Description: SANGER: Inhibition of human NCI-H1522 cell growth in a cell viability assay.

[39] = test system: EB-3; test: cells; assay type: functional, cell-based; settings: Homo sapiens;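 also: human EB-3 cells, growth inhibition read out via a cell viability assay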
Description: SANGER: Inhibition of human EB-3 cell growth in a cell viability assay.

[40] = test system: SK-MM-2; test: cells; assay type: functional, cell-based; settings: Homo sapiens;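 also: growth inhibition of human SK-MM-2 cells, read out with a cell viability assay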
Description: SANGER: Inhibition of human SK-MM-2 cell growth in a cell viability assay.

[41] = test system: Kasumi 1; test: cells; assay type: functional, cell-based; settings: Homo sapiens;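 also: growth inhibition of human Kasumi-1 cells, read out by a cell viability assay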
Description: SANGER: Inhibition of human KASUMI-1 cell growth in a cell viability assay.

[42] = test system: MRK-nu-1; test: cells; assay type: functional, cell-based; settings: Homo sapiens;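 also: cell viability assay measuring growth suppression of human MRK-nu-1 cells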
Description: SANGER: Inhibition of human MRK-nu-1 cell growth in a cell viability assay.

[43] = test system: WSU-NHL; test: cells; assay type: functional, cell-based; settings: Homo sapiens;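 also: growth inhibition of human WSU-NHL cells, read out with a cell viability assay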
Description: SANGER: Inhibition of human WSU-NHL cell growth in a cell viability assay.

[44] = test system: SUP-T1; test: cells; assay type: functional, cell-based; settings: Homo sapiens;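 also: growth inhibition of human SUP-T1 cells, read out as cell viability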
Description: SANGER: Inhibition of human SUP-T1 cell growth in a cell viability assay.

[45] = test system: UACC-812; test: cells; assay type: functional, cell-based; settings: Homo sapiens
Description: SANGER: Inhibition of human UACC-812 cell growth in a cell viability assay.

## CC1=C2C[C@H]3[C@@H](CC=C4C[C@@H](O)CC[C@@]43C)[C@@H]2CC[C@]12O[C@@H]1C[C@H](C)CN[C@H]1[C@H]2C [CYCLOPAMINE]
[1]
  IC50: > 16 µM
[2]
  IC50: > 16 µM
[3]
  IC50: > 16 µM
[4]
  IC50: > 16 µM
[5]
  IC50: > 16 µM
[6]
  IC50: > 16 µM
[7]
  IC50: > 16 µM
[8]
  IC50: > 16 µM
[9]
  IC50: > 16 µM
[10]
  IC50: > 16 µM
[11]
  IC50: > 16 µM
[12]
  IC50: > 16 µM
[13]
  IC50: > 16 µM
[14]
  IC50: > 16 µM
[15]
  IC50: > 16 µM
[16]
  IC50: > 16 µM
[17]
  IC50: > 16 µM
[18]
  IC50: > 16 µM
[19]
  IC50: > 16 µM
[20]
  IC50: > 16 µM
[21]
  IC50: > 16 µM
[22]
  IC50: > 16 µM
[23]
  IC50: > 16 µM
[24]
  IC50: > 16 µM
[25]
  IC50: > 16 µM
[26]
  IC50: > 16 µM
[27]
  IC50: > 16 µM
[28]
  IC50: > 16 µM
[29]
  IC50: > 16 µM
[30]
  IC50: > 16 µM
[31]
  IC50: > 16 µM
[32]
  IC50: > 16 µM
[33]
  IC50: > 16 µM
[34]
  IC50: > 16 µM
[35]
  IC50: > 16 µM
[36]
  IC50: > 16 µM
[37]
  IC50: > 16 µM
[38]
  IC50: > 16 µM
[39]
  IC50: > 16 µM
[40]
  IC50: > 16 µM
[41]
  IC50: > 16 µM
[42]
  IC50: > 16 µM
[43]
  IC50: > 16 µM
[44]
  IC50: > 16 µM
[45]
  IC50: > 16 µM

## CS(=O)(=O)CCNCc1ccc(-c2ccc3ncnc(Nc4ccc(OCc5cccc(F)c5)c(Cl)c4)c3c2)o1 [LAPATINIB]
[1]
  IC50: > 2 µM
[2]
  IC50: > 2 µM
[3]
  IC50: > 2 µM
[4]
  IC50: > 2 µM
[5]
  IC50: > 2 µM
[6]
  IC50: > 2 µM
[7]
  IC50: > 2 µM
[8]
  IC50: > 2 µM
[9]
  IC50: > 2 µM
[10]
  IC50: > 2 µM
[11]
  IC50: > 2 µM
[12]
  IC50: > 2 µM
[13]
  IC50: > 2 µM
[14]
  IC50: > 2 µM
[15]
  IC50: > 2 µM
[16]
  IC50: > 2 µM
[17]
  IC50: > 2 µM
[18]
  IC50: > 2 µM
[19]
  IC50: > 2 µM
[20]
  IC50: > 2 µM
[21]
  IC50: > 2 µM
[22]
  IC50: > 2 µM
[23]
  IC50: > 2 µM
[24]
  IC50: > 2 µM
[25]
  IC50: > 2 µM
[26]
  IC50: > 2 µM
[27]
  IC50: > 2 µM
[28]
  IC50: > 2 µM
[29]
  IC50: > 2 µM
[30]
  IC50: > 2 µM
[31]
  IC50: > 2 µM
[32]
  IC50: > 2 µM
[33]
  IC50: > 2 µM
[35]
  IC50: > 2 µM
[36]
  IC50: > 2 µM
[37]
  IC50: > 2 µM
[38]
  IC50: > 2 µM
[39]
  IC50: > 2 µM
[40]
  IC50: > 2 µM
[41]
  IC50: > 2 µM
[42]
  IC50: > 2 µM
[43]
  IC50: > 2 µM
[44]
  IC50: > 2 µM
[45]
  IC50: > 2 µM

## CCC(=O)N1CCN(c2ccc(-n3c(=O)ccc4cnc5ccc(-c6cnc7ccccc7c6)cc5c43)cc2C(F)(F)F)CC1 [TORIN1]
[1]
  IC50: 0.382 µM
[2]
  IC50: 0.303 µM
[3]
  IC50: > 1.2 µM
[4]
  IC50: > 1.2 µM
[5]
  IC50: > 1.2 µM
[6]
  IC50: 0.00337 µM
[7]
  IC50: > 1.2 µM
[8]
  IC50: 0.00892 µM
[9]
  IC50: 0.0536 µM
[10]
  IC50: 0.143 µM
[11]
  IC50: 0.587 µM
[12]
  IC50: 0.0443 µM
[13]
  IC50: 1.19 µM
[14]
  IC50: 0.108 µM
[15]
  IC50: 0.554 µM
[16]
  IC50: 0.372 µM
[17]
  IC50: > 1.2 µM
[18]
  IC50: > 1.2 µM
[19]
  IC50: 0.645 µM
[20]
  IC50: 0.167 µM
[21]
  IC50: > 1.2 µM
[22]
  IC50: 0.507 µM
[23]
  IC50: > 1.2 µM
[24]
  IC50: 0.00696 µM
[25]
  IC50: 0.0154 µM
[26]
  IC50: 0.118 µM
[27]
  IC50: 0.031 µM
[28]
  IC50: 0.0488 µM
[29]
  IC50: 0.106 µM
[30]
  IC50: 0.108 µM
[31]
  IC50: 0.301 µM
[32]
  IC50: 0.302 µM
[33]
  IC50: 0.509 µM
[34]
  IC50: 0.119 µM
[35]
  IC50: 0.0639 µM
[36]
  IC50: 0.082 µM
[37]
  IC50: 0.124 µM
[38]
  IC50: 0.649 µM
[39]
  IC50: 0.0364 µM
[40]
  IC50: 0.107 µM
[41]
  IC50: > 1.2 µM
[42]
  IC50: 0.00707 µM
[43]
  IC50: > 1.2 µM
[44]
  IC50: > 1.2 µM

## Cc1cc(Nc2cc(N3CCN(C)CC3)nc(Sc3ccc(NC(=O)C4CC4)cc3)n2)n[nH]1 [TOZASERTIB]
[1]
  IC50: > 2 µM
[2]
  IC50: > 2 µM
[3]
  IC50: > 2 µM
[4]
  IC50: 1.97 µM
[5]
  IC50: > 2 µM
[6]
  IC50: 0.39 µM
[7]
  IC50: > 2 µM
[8]
  IC50: > 2 µM
[9]
  IC50: 0.72 µM
[10]
  IC50: > 2 µM
[11]
  IC50: 0.511 µM
[12]
  IC50: 0.851 µM
[13]
  IC50: > 2 µM
[14]
  IC50: > 2 µM
[15]
  IC50: > 2 µM
[16]
  IC50: > 2 µM
[17]
  IC50: > 2 µM
[18]
  IC50: > 2 µM
[19]
  IC50: > 2 µM
[20]
  IC50: > 2 µM
[21]
  IC50: > 2 µM
[22]
  IC50: > 2 µM
[23]
  IC50: > 2 µM
[24]
  IC50: 0.104 µM
[25]
  IC50: 1.42 µM
[26]
  IC50: > 2 µM
[27]
  IC50: 0.313 µM
[28]
  IC50: 0.809 µM
[29]
  IC50: 0.231 µM
[30]
  IC50: > 2 µM
[31]
  IC50: > 2 µM
[32]
  IC50: 0.636 µM
[33]
  IC50: > 2 µM
[34]
  IC50: 0.195 µM
[35]
  IC50: > 2 µM
[36]
  IC50: > 2 µM
[37]
  IC50: 0.373 µM
[38]
  IC50: > 2 µM
[39]
  IC50: > 2 µM
[40]
  IC50: > 2 µM
[41]
  IC50: > 2 µM
[42]
  IC50: 0.381 µM
[43]
  IC50: > 2 µM
[44]
  IC50: > 2 µM
